From ChEMBL document CHEMBL1139986, “Synthesis and biodistribution of 8-iodo-11-(4-methylpiperazino)-5H-dibenzo[b,e][1,4]-diazepine: Iozapine” (Bioorg Med Chem Lett, 2007)

How the values were obtained:
Heart [1] = assay: Biodistribution in BALB/c mouse heart at 7 to 8 KBq, iv after 60 mins; type: ADME, organism-based; conditions: in vivo, 1 h
Kidney [2] = assay: Biodistribution in BALB/c mouse kidney at 7 to 8 KBq, iv after 5 mins; type: ADME, organism-based; conditions: in vivo
Stomach [3] = assay: Biodistribution in BALB/c mouse stomach at 7 to 8 KBq, iv after 5 mins; type: ADME, organism-based; conditions: in vivo
Kidney [4] = assay: Biodistribution in BALB/c mouse kidney at 7 to 8 KBq, iv after 120 mins; type: ADME, organism-based; conditions: in vivo, 2 h
Cerebellum [5] = assay: Biodistribution in BALB/c mouse cerebellum at 7 to 8 KBq, iv after 15 mins; type: ADME, organism-based; conditions: in vivo, 0.25 h
Thalamus [6] = assay: Biodistribution in BALB/c mouse thalamus at 7 to 8 KBq, iv after 60 mins; type: ADME, organism-based; conditions: in vivo, 1 h
Spleen [7] = assay: Biodistribution in BALB/c mouse spleen at 7 to 8 KBq, iv after 120 mins; type: ADME, organism-based; conditions: in vivo, 2 h
Mus musculus [8] = assay: Biodistribution in BALB/c mouse lower body at 7 to 8 KBq, iv after 60 mins; type: ADME, organism-based; conditions: in vivo, 1 h
Lung = assay: Biodistribution in BALB/c mouse lung at 7 to 8 KBq, iv after 120 mins; type: ADME, organism-based; conditions: in vivo, 2 h
Hippocampus = assay: Biodistribution in BALB/c mouse hippocampus at 7 to 8 KBq, iv after 5 mins; type: ADME, organism-based; conditions: in vivo
Blood [9] = assay: Biodistribution in BALB/c mouse blood at 7 to 8 KBq, iv after 120 mins; type: ADME, organism-based; conditions: in vivo, 2 h
Cortex [10] = assay: Biodistribution in BALB/c mouse cortex at 7 to 8 KBq, iv after 5 mins; type: ADME, organism-based; conditions: in vivo
Mus musculus [11] = assay: Biodistribution in BALB/c mouse lower body at 7 to 8 KBq, iv after 5 mins; type: ADME, organism-based; conditions: in vivo
Spleen [12] = assay: Biodistribution in BALB/c mouse spleen at 7 to 8 KBq, iv after 15 mins; type: ADME, organism-based; conditions: in vivo, 0.25 h
Thyroid gland [13] = assay: Biodistribution in BALB/c mouse thyroid at 7 to 8 KBq, iv after 5 mins; type: ADME, organism-based; conditions: in vivo
Stomach [14] = assay: Biodistribution in BALB/c mouse stomach at 7 to 8 KBq, iv after 60 mins; type: ADME, organism-based; conditions: in vivo, 1 h
Intestine [15] = assay: Biodistribution in BALB/c mouse intestine at 7 to 8 KBq, iv after 15 mins; type: ADME, organism-based; conditions: in vivo, 0.25 h
Stomach [16] = assay: Biodistribution in BALB/c mouse stomach at 7 to 8 KBq, iv after 120 mins; type: ADME, organism-based; conditions: in vivo, 2 h
Mus musculus [17] = assay: Biodistribution in BALB/c mouse lower body at 7 to 8 KBq, iv after 120 mins; type: ADME, organism-based; conditions: in vivo, 2 h
Cerebellum [18] = assay: Biodistribution in BALB/c mouse cerebellum at 7 to 8 KBq, iv after 120 mins; type: ADME, organism-based; conditions: in vivo, 2 h
Cortex [19] = assay: Biodistribution in BALB/c mouse cortex at 7 to 8 KBq, iv after 120 mins; type: ADME, organism-based; conditions: in vivo, 2 h
Medulla [20] = assay: Biodistribution in BALB/c mouse medulla at 7 to 8 KBq, iv after 60 mins; type: ADME, organism-based, Medulla of organ; conditions: in vivo, 1 h
Pancreas [21] = assay: Biodistribution in BALB/c mouse pancreas at 7 to 8 KBq, iv after 5 mins; type: ADME, organism-based; conditions: in vivo
Blood [22] = assay: Biodistribution in BALB/c mouse blood at 7 to 8 KBq, iv after 60 mins; type: ADME, organism-based; conditions: in vivo, 1 h
Thalamus [23] = assay: Biodistribution in BALB/c mouse thalamus at 7 to 8 KBq, iv after 5 mins; type: ADME, organism-based; conditions: in vivo
Intestine [24] = assay: Biodistribution in BALB/c mouse intestine at 7 to 8 KBq, iv after 60 mins; type: ADME, organism-based; conditions: in vivo, 1 h
Striatum = assay: Biodistribution in BALB/c mouse striatum at 7 to 8 KBq, iv after 120 mins; type: ADME, organism-based; conditions: in vivo, 2 h
Heart [25] = assay: Biodistribution in BALB/c mouse heart at 7 to 8 KBq, iv after 15 mins; type: ADME, organism-based; conditions: in vivo, 0.25 h
Medulla [26] = assay: Biodistribution in BALB/c mouse medulla at 7 to 8 KBq, iv after 5 mins; type: ADME, organism-based, Medulla of organ; conditions: in vivo
Brain [27] = assay: Biodistribution in BALB/c mouse brain at 7 to 8 KBq, iv after 15 mins; type: ADME, organism-based; conditions: in vivo, 0.25 h
Brain [28] = assay: Biodistribution in BALB/c mouse brain at 7 to 8 KBq, iv after 5 mins; type: ADME, organism-based; conditions: in vivo
Kidney [29] = assay: Biodistribution in BALB/c mouse kidney at 7 to 8 KBq, iv after 60 mins; type: ADME, organism-based; conditions: in vivo, 1 h
Mus musculus [30] = assay: Biodistribution in BALB/c mouse upper body at 7 to 8 KBq, iv after 120 mins; type: ADME, organism-based; conditions: in vivo, 2 h
Mus musculus [31] = assay: Biodistribution in BALB/c mouse lower body at 7 to 8 KBq, iv after 15 mins; type: ADME, organism-based; conditions: in vivo, 0.25 h
Pancreas [32] = assay: Biodistribution in BALB/c mouse pancreas at 7 to 8 KBq, iv after 15 mins; type: ADME, organism-based; conditions: in vivo, 0.25 h
Thyroid gland [33] = assay: Biodistribution in BALB/c mouse thyroid at 7 to 8 KBq, iv after 60 mins; type: ADME, organism-based; conditions: in vivo, 1 h
Cerebellum [34] = assay: Biodistribution in BALB/c mouse cerebellum at 7 to 8 KBq, iv after 60 mins; type: ADME, organism-based; conditions: in vivo, 1 h
Brain [35] = assay: Biodistribution in BALB/c mouse brain at 7 to 8 KBq, iv after 60 mins; type: ADME, organism-based; conditions: in vivo, 1 h

- Drug uptake (Heart [1]): 0.13 %ID
- Drug uptake (Kidney [2]): 5.42 %ID
- Drug uptake (Stomach [3]): 1.77 %ID
- Drug uptake (Kidney [4]): 1.19 %ID
- Drug uptake (Cerebellum [5]): 4.71 %ID
- Drug uptake (Thalamus [6]): 1.56 %ID
- Drug uptake (Spleen [7]): 0.04 %ID
- Drug uptake (Mus musculus [8]): 10.24 %ID
- Drug uptake (Lung): 0.17 %ID
- Drug uptake (Hippocampus): 7.07 %ID
- Drug uptake (Blood [9]): 1.77 %ID
- Drug uptake (Cortex [10]): 7.22 %ID
- Drug uptake (Mus musculus [11]): 18.94 %ID
- Drug uptake (Spleen [12]): 0.31 %ID
- Drug uptake (Thyroid gland [13]): 0 %ID
- Drug uptake (Stomach [14]): 7.35 %ID
- Drug uptake (Intestine [15]): 17.73 %ID
- Drug uptake (Stomach [16]): 4.61 %ID
- Drug uptake (Mus musculus [17]): 4.97 %ID
- Drug uptake (Cerebellum [18]): 0.12 %ID
- Drug uptake (Cortex [19]): 0.22 %ID
- Drug uptake (Medulla [20]): 1.2 %ID
- Drug uptake (Pancreas [21]): 1.41 %ID
- Drug uptake (Blood [22]): 3.49 %ID
- Drug uptake (Thalamus [23]): 7.82 %ID
- Drug uptake (Intestine [24]): 35.19 %ID
- Drug uptake (Striatum): 0.2 %ID
- Drug uptake (Heart [25]): 0.28 %ID
- Drug uptake (Medulla [26]): 6.78 %ID
- Drug uptake (Brain [27]): 2.79 %ID
- Drug uptake (Brain [28]): 3.49 %ID
- Drug uptake (Kidney [29]): 2.15 %ID
- Drug uptake (Mus musculus [30]): 5.72 %ID
- Drug uptake (Mus musculus [31]): 15.02 %ID
- Drug uptake (Pancreas [32]): 1.02 %ID
- Drug uptake (Thyroid gland [33]): 0.68 %ID
- Drug uptake (Cerebellum [34]): 0.94 %ID
- Drug uptake (Brain [35]): 0.8 %ID
Structure (SMILES): CN1CCN(C2=Nc3cc([125I])ccc3Nc3ccccc32)CC1 [[125I]I-OZAPINE]
